# Test results reported in PubChem BioAssay (NCI).
#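 Method: 48-hour compound exposure of cells in 96-well plates, five concentrations, linear interpolation of endpoints. Definition used: TGI = concentration required for complete inhibition of growth.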
# Assays:
# Experiment in all cases: NCI-60 cell line screen, 48 h
# [1] = system: NCI-H226 lung
# [2] = system: UACC-62 melanoma
# [3] = system: COLO 205 colon
# [4] = system: OVCAR-3 ovarian
# [5] = system: A549 NSCLC
# [6] = system: MDA-MB-435
# [7] = system: HCT-15 colon
# [8] = system: HCT-116 colon
# [9] = system: OVCAR-8 ovarian
# [10] = system: DU-145 prostate
# [11] = system: SF-295 CNS
# [12] = system: HT29 colon
# [13] = system: NCI-H23 lung
# [14] = system: OVCAR-4 ovarian
# [15] = system: M14 melanoma
# [16] = system: SK-MEL-5 melanoma
# [17] = system: MOLT-4 leukemia
# [18] = system: ACHN renal
# [19] = system: NCI-H460 lung
structure (smiles),measurement,setting,value
NC(=O)OCc1c(-c2ccccc2)nn(-c2ccccc2)c1COC(N)=O,TGI,[1],> 100 µM
same,TGI,[2],> 100 µM
same,TGI,[3],> 100 µM
same,TGI,[4],> 100 µM
same,TGI,[5],> 100 µM
same,TGI,[6],> 100 µM
same,TGI,[7],> 100 µM
same,TGI,[8],> 100 µM
same,TGI,[9],> 100 µM
same,TGI,[10],> 100 µM
same,TGI,[11],> 100 µM
same,TGI,[12],> 100 µM
same,TGI,[13],> 100 µM
same,TGI,[14],> 100 µM
same,TGI,[15],> 100 µM
same,TGI,[16],> 100 µM
COc1ccc(C2=NN(C(=O)c3cccnc3)C(O)(c3cc(F)c(Cl)cc3Cl)C2)cc1OC (stereo not given),TGI,[1],30 µM
same,TGI,[3],27.8 µM
same,TGI,[4],27.6 µM
same,TGI,[17],> 100 µM
same,TGI,[5],> 100 µM
same,TGI,[6],87.4 µM
same,TGI,[7],35 µM
same,TGI,[8],29.2 µM
same,TGI,[9],35.7 µM
same,TGI,[10],> 100 µM
same,TGI,[11],39 µM
same,TGI,[18],57.9 µM
same,TGI,[12],34.9 µM
same,TGI,[13],71.7 µM
same,TGI,[19],38.3 µM
same,TGI,[14],> 100 µM
same,TGI,[15],34.6 µM
same,TGI,[16],25 µM
CC1c2cc(c3c(c2O)CN([C@@H](C)C2CCCCC2)CO3)C(C)c2cc(c3c(c2O)CN([C@@H](C)C2CCCCC2)CO3)C(C)c2cc(c3c(c2O)CN([C@@H](C)C2CCCCC2)CO3)C(C)c2cc1c1c(c2O)CN([C@@H](C)C2CCCCC2)CO1 (stereo not given in full),TGI,[1],2.22 µM
same,TGI,[2],3.86 µM
same,TGI,[3],2.65 µM
same,TGI,[4],2.93 µM
same,TGI,[17],9.63 µM
same,TGI,[5],> 100 µM
same,TGI,[6],3.62 µM
same,TGI,[7],2.92 µM
same,TGI,[8],2.04 µM
same,TGI,[9],2.4 µM
same,TGI,[10],2.64 µM
same,TGI,[18],2.78 µM
same,TGI,[12],1.26 µM
same,TGI,[19],2.53 µM
same,TGI,[14],3.03 µM
same,TGI,[15],> 23.7 µM
same,TGI,[16],3.46 µM
CCN(CC)C(=S)SS(=O)(=O)c1ccc(NC(C)=O)cc1,TGI,[1],> 100 µM
same,TGI,[2],> 91.3 µM
same,TGI,[3],> 72.1 µM
same,TGI,[4],> 100 µM
same,TGI,[5],43.4 µM
same,TGI,[6],33.4 µM
same,TGI,[7],> 100 µM
same,TGI,[8],31.1 µM
same,TGI,[9],29.1 µM
same,TGI,[10],> 75.4 µM
same,TGI,[11],> 100 µM
same,TGI,[18],> 88.8 µM
same,TGI,[12],70.8 µM
same,TGI,[13],62.3 µM
same,TGI,[19],> 100 µM
same,TGI,[14],54.3 µM
same,TGI,[15],33 µM
same,TGI,[16],20.9 µM
O=C1C=C2CC[C@H]3[C@@H]4CC[C@H](OC(=O)c5cccc6cc7ccccc7nc56)[C@H]4CC[C@@H]3[C@H]2CC1,TGI,[1],> 100 µM
same,TGI,[2],> 100 µM
same,TGI,[3],> 100 µM
same,TGI,[4],> 100 µM
same,TGI,[17],> 100 µM
same,TGI,[5],> 100 µM
same,TGI,[6],> 100 µM
same,TGI,[7],> 100 µM
same,TGI,[8],> 100 µM
same,TGI,[9],> 100 µM
same,TGI,[10],> 100 µM
same,TGI,[11],> 100 µM
same,TGI,[18],> 100 µM
same,TGI,[12],> 100 µM
same,TGI,[13],> 100 µM
same,TGI,[14],> 100 µM
same,TGI,[15],> 100 µM
same,TGI,[16],> 100 µM
CCOC(=O)c1cc2cc(C)cc(C(=O)c3ccc([N+](=O)[O-])cc3)c2[nH]1,TGI,[1],> 100 µM
same,TGI,[2],> 100 µM
same,TGI,[3],> 100 µM
same,TGI,[4],> 100 µM
same,TGI,[17],> 100 µM
same,TGI,[5],> 100 µM
same,TGI,[6],> 100 µM
same,TGI,[7],> 100 µM
same,TGI,[8],> 100 µM
same,TGI,[10],> 100 µM
same,TGI,[11],> 100 µM
same,TGI,[18],> 100 µM
same,TGI,[12],> 100 µM
same,TGI,[13],> 100 µM
same,TGI,[19],> 100 µM
same,TGI,[14],> 100 µM
same,TGI,[15],> 100 µM
same,TGI,[16],> 100 µM
